Here are results for twelve molecules from ChEMBL document CHEMBL1201862, “PubChem BioAssay data set” (2004).

What all share (test): DTP human tumour cell line panel, 48 h
Experiment [1] has as its system OVCAR-5.
For experiment [2], the system named is NCI-H522.
In experiment [3] the test system is IGROV-1.
Experiment [4] has as its system LXFL 529.
Experiment [5] has as its system NCI-H226.
For experiment [6], the system named is TK-10.
In experiment [7] the test system is SK-MEL-28.
Experiment [8] deals with CCRF-CEM.
Experiment [9] has as its system SNB-75.
Experiment [10] relates to COLO 205.
Experiment [11] relates to M14.
Experiment [12] concerns HT-29.
For experiment [13], the system named is ACHN.
In experiment [14] the test system is HCT-15.
The test system of experiment [15] is OVCAR-4.
In experiment [16] the test system is HOP-92.
Experiment [17] concerns HL-60.
The test system of experiment [18] is A498.
Experiment [19] concerns UO-31.
In experiment [20] the test system is DU-145.

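96-well plates; 48 h exposure; 5 concentrations. Endpoints by linear interpolation between flanking doses. Not reached: highest tested concentration assigned. GI50 = concentration required for 50% inhibition of growth.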 Activity calls are given as the source filed them. No stated cut-off is given here; in the data, active = GI50 up to about 1.1 µM and inactive = higher.

A word on the GI50: it is the concentration that inhibits growth by half. As for `O=C(NCCCCCCNC(=O)NC1OCC(O)C(O)C1O)NC1OCC(O)C(O)C1O` (configuration not stated), the GI50 in experiment [1], in experiment [2], in [3], in experiment [4], in [5] and in experiment [6] was > 100 µM (inactive) throughout. Moreover, the GI50 in [7] is > 100 µM (inactive); in experiment [8] it was > 100 µM (inactive); in experiment [9], 64.9 µM (inactive); in experiment [10], > 100 µM (inactive); in [11] it was > 100 µM (inactive); in [12] it was > 100 µM (inactive). The GI50 is > 100 µM (inactive) in experiment [13]; above 100 µM in [14]; > 100 µM (inactive) in [15]; > 100 µM (inactive) in experiment [16]; > 100 µM (inactive) in [17].

As for `CC(=O)O[C@@H]1C2C(=O)OC(=O)C2C2CCC[C@]23O[C@H]13` (some centres not stated), the GI50 in experiment [2], in experiment [3], in experiment [4], in experiment [5], in experiment [6] and in experiment [7] was > 100 µM (inactive) each time. The GI50 in experiment [8], in experiment [9], in [10], in [11], in experiment [18] and in [13] was > 100 µM (inactive) in each case. For the same molecule, the GI50 is above 100 µM in experiment [14], > 100 µM (inactive) in experiment [19], > 100 µM (inactive) in experiment [15] and > 100 µM (inactive) in [17].

Take `CC(=O)NNc1nc(C)c(C(=O)NNC(=O)C(=O)Nc2c(Cl)cc([N+](=O)[O-])cc2Cl)s1`: the GI50 in experiment [1] is 27.2 µM (inactive); in [2], > 10 µM (inactive); in experiment [3] it was 49.3 µM (inactive); in experiment [4], 33.7 µM (inactive); in experiment [5], 24 µM (inactive); in experiment [6], 41.4 µM (inactive). Also, the GI50 is 26.4 µM (inactive) in experiment [7]; 31.8 µM (inactive) in experiment [8]; 36.3 µM (inactive) in experiment [10]; 52.1 µM (inactive) in [11]; 21.6 µM (inactive) in experiment [18]; 37.8 µM (inactive) in experiment [12]. Besides, the GI50 in experiment [13] was 31.8 µM (inactive); in [14], 40.4 µM; in experiment [19], 27.4 µM (inactive); in [15] it was 22.1 µM (inactive); in experiment [16] it was 19.5 µM (inactive); in [17], 28.2 µM (inactive).

For `NCCCNCCCCN(CCCN)/[N+]([O-])=N\O`, the GI50 in [1], in experiment [3], in experiment [4], in experiment [5], in experiment [7] and in [8] was > 100 µM (inactive) each time. Also, the GI50 in [9] was 89.3 µM (inactive); in [10] it was > 100 µM (inactive); in [11] it was > 100 µM (inactive); in experiment [12], > 100 µM (inactive); in experiment [13], > 100 µM (inactive); in experiment [14], above 100 µM. Further, the GI50 in experiment [19], in [15], in experiment [16] and in experiment [17] was > 100 µM (inactive) each time.

For the molecule `CC1(OCc2ccccc2)C(=O)N2C1NCC2(C)C` (configuration not stated), the GI50 in experiment [3], in [4], in [5], in [6], in [7] and in experiment [8] was > 100 µM (inactive) each time. In addition, the GI50 in experiment [9], in [10], in experiment [11], in experiment [18], in [12] and in [13] was > 100 µM (inactive) in each case. The GI50 was above 100 µM in experiment [14], 86.5 µM (inactive) in experiment [19], > 100 µM (inactive) in experiment [15] and > 100 µM (inactive) in experiment [17].

Consider `C/C(CN1C(=O)c2ccccc2C1=O)=N\NS(=O)(=O)c1cccc(C(=O)O)c1`, for which the GI50 in [1], in [2], in experiment [3], in [4], in experiment [5] and in [6] was > 100 µM (inactive) in each case. Also, the GI50 in experiment [7], in [8], in experiment [9], in [10], in experiment [11] and in [18] was > 100 µM (inactive) each time. The GI50 in [12] was > 100 µM (inactive); in experiment [13], > 100 µM (inactive); in experiment [14] it was above 100 µM; in experiment [19], > 100 µM (inactive); in experiment [15] it was > 100 µM (inactive); in experiment [17] it was > 100 µM (inactive).

Take `N#Cc1ccc(Sc2nc3ccccc3[nH]2)cc1`: the GI50 in experiment [1] was 42.8 µM (inactive); in experiment [2], > 100 µM (inactive); in [3], 86.7 µM (inactive); in [4] it was 46.7 µM (inactive); in experiment [5], 36.6 µM (inactive); in experiment [6], > 100 µM (inactive). Also, the GI50 in [7], in [8], in experiment [10], in experiment [12], in experiment [13] and in experiment [19] was > 100 µM (inactive) throughout. The GI50 in experiment [15] was > 100 µM (inactive); in [16] it was > 100 µM (inactive); in experiment [17], 84.3 µM (inactive).

Turning to `O=c1c2ccccc2nc(-c2ccccc2)n1O`, the GI50 was > 100 µM (inactive) in experiment [1]; > 100 µM (inactive) in experiment [2]; 56.8 µM (inactive) in experiment [3]; 73.5 µM (inactive) in experiment [5]; > 100 µM (inactive) in [6]; > 100 µM (inactive) in experiment [7]. Also, the GI50 in [8] is 19.6 µM (inactive); in experiment [9], 87.3 µM (inactive); in [10] it was > 100 µM (inactive); in [11], 95.7 µM (inactive); in experiment [18], > 100 µM (inactive); in experiment [12] it was > 100 µM (inactive). For the same molecule, the GI50 in experiment [13] was > 100 µM (inactive); in experiment [14], 41.1 µM; in experiment [19], 8.53 µM (inactive); in [15] it was 55.5 µM (inactive); in experiment [20], > 100 µM (inactive); in experiment [16], 22.9 µM (inactive). The GI50 in experiment [17] was 54 µM (inactive).

For `CC(NC(=O)c1ccccc1)(C(=O)O)C(=O)O`, the GI50 in experiment [1], in [2], in experiment [3], in [5], in experiment [6] and in experiment [7] was > 100 µM (inactive) throughout. Also, the GI50 in [8], in experiment [9], in [10], in experiment [11], in experiment [18] and in experiment [12] was > 100 µM (inactive) throughout. Further, the GI50 in experiment [13] was > 100 µM (inactive); in [14] it was above 100 µM; in [19], > 100 µM (inactive); in experiment [15] it was > 100 µM (inactive); in [20], > 100 µM (inactive); in experiment [16] it was 83 µM (inactive). Moreover, the GI50 in [17] is > 100 µM (inactive).

Turning to `C=C(Cl)C(Cl)(CBr)CCCC(C)(C)Cl` (configuration not stated), the GI50 in experiment [1] was 18.4 µM (inactive); in experiment [2], 9.25 µM (inactive); in experiment [3], 33.3 µM (inactive); in experiment [5], > 72.9 µM (inactive); in [6], 2.26 µM (inactive); in experiment [7], 11.7 µM (inactive). For the same molecule, the GI50 in [8] was > 33.7 µM (inactive); in experiment [9] it was 4.48 µM (inactive); in experiment [10], 7.5 µM (inactive); in [11] it was > 75.2 µM (inactive); in experiment [18], 19.8 µM (inactive); in experiment [12], 1.97 µM (inactive). For the same molecule, the GI50 was 6.68 µM (inactive) in experiment [13]; 26.3 µM in experiment [14]; 14.5 µM (inactive) in [19]; 2.55 µM (inactive) in [15]; 10.9 µM (inactive) in experiment [20]; 2.41 µM (inactive) in experiment [16]. In experiment [17], the GI50 is 1.53 µM (inactive).

For the molecule `C=C1C(OC(=O)/C=C/c2ccccc2)CC(OC(C)=O)C2(C)C1CC1CC(OC(C)=O)C(C)=C(C(OC(C)=O)C2OC(C)=O)C1(C)C` (configuration not stated), the GI50 in experiment [1] is > 100 µM (inactive); in experiment [2], > 100 µM (inactive); in [3] it was > 100 µM (inactive); in experiment [4] it was 8.36 µM (inactive); in experiment [5], > 100 µM (inactive); in [6] it was > 100 µM (inactive). The GI50 is 5.25 µM (inactive) in experiment [8]; > 100 µM (inactive) in experiment [9]; 34 µM (inactive) in experiment [10]; > 100 µM (inactive) in experiment [11]; 31.6 µM (inactive) in [18]; > 100 µM (inactive) in [12]. The GI50 was 5.41 µM in experiment [14], > 100 µM (inactive) in [19], > 100 µM (inactive) in experiment [16] and 2.07 µM (inactive) in experiment [17].

For the molecule `CCOC(=O)C1=C(C)Nc2ccccc2S1`, the GI50 in [1], in [2], in [3], in [4], in experiment [5] and in [6] was > 100 µM (inactive) throughout. The GI50 is > 100 µM (inactive) in experiment [7]; > 100 µM (inactive) in experiment [8]; > 100 µM (inactive) in experiment [9]; 77.8 µM (inactive) in [10]; > 100 µM (inactive) in experiment [11]; > 100 µM (inactive) in experiment [18]. Besides, the GI50 in experiment [12] was > 100 µM (inactive); in experiment [13], > 100 µM (inactive); in experiment [14], above 100 µM; in experiment [19] it was > 100 µM (inactive); in [15], > 100 µM (inactive); in experiment [16] it was 44 µM (inactive).
